{
  "source": "paper PMC10470491",
  "about": "“Modulation of the functional interfaces between retroviral intasomes and the human nucleosome” (mBio, 2023)",
  "key": {"[1]": {"system": "HIV-1 intasome (vDNA•IN•LEDGF/p75)", "assay": "in vitro HIV-1 concerted integration onto mononucleosome", "format": "biochemical"}, "[2]": {"system": "PFV intasome/nucleosome complex", "assay": "AlphaLISA PFV intasome/nucleosome interaction assay", "format": "binding, prototype foamy virus (PFV); human mononucleosome", "experimental": "AlphaLISA is a technology particularly suitable for bimolecular inhibitor screening assays using protein-protein interactions with purified recombinant proteins. The AlphaLISA assay development was performed in 96-well 12 area Alphaplate (reference 6052340, PerkinElmer, Waltham, MA, USA) with a final reaction volume of 40 µL. Cross-titration experiments of biotinylated MN (0–50 nM) against DIG-intasome (0–100 nM) were carried out to establish optimal assay concentrations for the binding assay. Ten microliters of each protein were diluted in the binding buffer 50 mM BisTris-propane pH 7, 100 mM NaCl, 0.1% (v/v) Tween-20, 0.1% (w/v) BSA, and 1 mM dithiothreitol. The plate was incubated at RT for 2 h in rotation. Ten microliters of anti-DIG acceptor beads (PerkinElmer, reference AL113) were then added, and after 1 h of incubation at RT with rotation, 10 µL of streptavidin […] (Perkin Elmer, reference 6760002) was mixed to the wells. This established a final concentration of 20 µg/mL for each bead. The plate was then incubated for 1 h at RT in the dark before the AlphaLISA signal was detected using an EnSpire Multimode Plate Reader (PerkinElmer). Negative control with binding buffer or only with one of the complexes was used to control the assay quality. Data were analyzed with GraphPad Prism 5.01 software. To evaluate tolerance for DMSO, the assay was performed as described above with an addition of 0.15–20% (v/v) of DMSO during the binding step. For the competition experiment, increasing concentrations of untagged intasome were titrated out in the 1-nM DIG-intasome/biotinylated nucleosome interaction assay.\nFor the AlphaLISA screening assay with the NIH OncoSET library, the binding conditions were optimized for use in 384-well plate (Optiplate, reference 6007290, PerkinElmer) with the same concentrations for complexes and beads in a final reaction volume of 20.5 µL (2.5% DMSO final concentration). The screening was first carried out with 25 µM of each compound pre-incubated for 1 h with 1 nM intasome/nucleosome complexes. Compounds were selected as inducing at least 50% decrease of the AlphaLISA signal control condition, and their inhibitory effect was further tested using dose-response curves. For compounds validation, counter select assay was performed using a short DNA fragment carrying a biotin and a DIG tag on each side. The AlphaLISA signal was monitoring using increasing concentrations of the double-tagged DNA, and the selected compounds were tested in optimized conditions at 10 µM. Any compound that causes decreased signal means that it interferes with AlphaLISA readout, and therefore, it is not relevant to this assay."}, "[3]": {"target": "histone tails", "parameters": "method as in PMID 26503405", "details": "ref [18]; cited from earlier work"}, "[4]": {"target": "PFV intasome (Human spumaretrovirus, UniProt P14350)", "assay": "biochemical", "format": "biochemical, prototype foamy virus (PFV)", "parameters": "Briefly, PFV IN and its cognate vDNA were mixed, and assembled intasomes were purified by size exclusion chromatography; octamers produced in E. coli", "details": "for inhibition of PFV integration into MNs: 30 nM FITC PFV intasome, MN, drugs 0–25 µM", "experimental": "Integration assays using purified assembled intasomes were performed as followed: either 100 ng of naked DNA or 100 ng of DNA assembled on 100 ng of histone octamers (24 nM final concentration) was incubated with 30 nM final concentration of purified intasome in 100 mM NaCl, 20 mM BTP pH 7, 12.5 mM MgSO4 (for PFV intasome), or in 20 mM HEPES pH 7, 7.5% DMSO, 8% PEG, 10 mM MgCl2, 20 µM ZnCl2, 100 mM NaCl, 5 mM DTT final concentration (for HIV-1 intasome) in a final volume of 40 µL. The mix was then incubated at 37°C for 15 min and 1 h, respectively. Then, reaction was stopped by the addition of 5.5 µL of a mix containing 5% SDS and 0.25 M EDTA and deproteinized with proteinase K (Promega) for 1 h at 37°C. Nucleic acids were then precipitated with 150 µL of ethanol overnight at −20°C. Samples were then spun at top speed for 1 h at 4°C, and the pellets were dried and then resuspended with DNA loading buffer. Integration products were separated on an 8% native polyacrylamide gel."}, "[5]": {"system": "HIV-1 subtype B virus", "assay": "qPCR quantification of viral DNA populations in infected PBMCs", "format": "cell-based"}, "[6]": {"system": "HIV-1 intasome", "details": "MN assembled onto natural DO2 sequence"}, "[7]": {"system": "mononucleosome (MN)", "assay": "histone eviction assay (EMSA / SDS-PAGE)", "format": "biochemical, human", "details": "10 µM or increasing concentrations"}, "[8]": {"system": "Vpr-BLaM containing NL-4.3 or NL-4.3Δenv-VSV-G viruses", "format": "cell-based, HIV-1"}, "[9]": {"system": "HIV-1 subtype B virus", "assay": "HIV-1 infection assay in PBMCs (HIV-1 RNA in supernatant)", "format": "cell-based", "details": "Human immunodeficiency virus 1, PBMC, read-out: IC50 of HIV-1 replication", "experimental": "PBMCs were isolated from blood samples using Ficoll-Hypaque gradient centrifugation. After separation, PBMCs were pelleted by centrifugation. […] Next, PBMCs were harvested (7 min, 400 × g) and resuspended in 500 µL culture medium. […] Then, the medium was removed, and 10 mL of RPMI 1640 was added to wash the cells. The cells were harvested at low speed (400 × g), and the washed-cell pellet was resuspended in 2 mL of supplemented RPMI 1640. The cell suspension was added to wells of a 24-well tissue culture plate and incubated at 37°C. HIV-1 RNA from plasma samples was determined at 24, 48, and 72 h postinfection."}, "[10]": {"system": "PBMC cells"}},
  "note": "Like-named read-outs stand apart in the source and are kept apart here.",
  "data": [
    {"smiles": "O=S(=O)(O)c1cc2c(O)c(c1)Cc1cc(S(=O)(=O)O)cc(c1O)Cc1cc(S(=O)(=O)O)cc(c1O)Cc1cc(S(=O)(=O)O)cc(c1O)C2", "note": "[CA1]", "values": [
      {"measurement": "IC50", "setting": "[1]; Table 4, title: in vitro HIV-1 integration inhibition, read-out: Integration IC50", "value": "> 1000", "unit": "nM"},
      {"measurement": "inhibition of intasome/nucleosome association in AS", "setting": "[2]; increasing drug concentrations", "value": "less efficient in inhibiting the association"},
      {"measurement": "Kd", "setting": "[3]", "value": "17.8 to 20.4", "unit": "µM"},
      {"measurement": "inhibition of PFV integration into MNs", "setting": "[4]", "value": "inefficient in our assay"}
    ]},
    {"smiles": "COc1cccc2c1C(=O)c1c(O)c3c(c(O)c1C2=O)C[C@@](O)(C(=O)CO)C[C@@H]3O[C@H]1C[C@H](N)[C@H](O)[C@H](C)O1", "note": "[Doxorubicin, doxorubicin]", "values": [
      {"measurement": "effect on total viral DNA", "setting": "[5]; 20 h postinfection", "value": "no effect"},
      {"measurement": "effect on integrated DNA", "setting": "[5]; infected PBMCs", "value": "decreased"},
      {"measurement": "effect on two-LTR circles", "setting": "[5]; infected PBMCs", "value": "increased"},
      {"measurement": "IC50", "setting": "[1]; preformed HIV-1 intasome, MN, read-out: IC50 of in vitro HIV-1 integration", "value": "~300", "unit": "nM"},
      {"measurement": "IC50", "setting": "[1]; preformed HIV-1 intasome, native MN (601), read-out: IC50 of in vitro HIV-1 integration", "value": "< 1000", "unit": "nM"},
      {"measurement": "decrease in the AS signal", "setting": "[2]; OncoSET screen, 25 µM drug, 1 nM of each partner", "value": "at least 50%"},
      {"measurement": "IC50", "setting": "[2]; intasome/nucleosome AS assay, increasing drug concentrations, Fig. 3E", "value": "870 ± 40", "unit": "nM"},
      {"measurement": "effect on the intasome/nucleosome AS signal", "setting": "[2]; retest at 10 µM, MN", "value": "strong inhibitory effect"},
      {"measurement": "IC50", "setting": "[4]", "value": "< 1000", "unit": "nM"},
      {"measurement": "inhibition of PFV integration into MNs", "setting": "[4]", "value": "able to inhibit PFV integration into MNs"},
      {"measurement": "inhibition of HIV-1 integration into DO2 nucleosome", "setting": "[6]", "value": "as efficient in inhibiting the HIV-1 integration into DO2 nucleosome than onto the 601 nucleosome"},
      {"measurement": "histone eviction / MN dissociation", "setting": "[7]", "value": "full shift of the nucleosomal DNA in addition to a strong MN dissociation"},
      {"measurement": "effect on viral fusion / entry", "setting": "[8]", "value": "did not affect this early entry step"},
      {"measurement": "IC50", "setting": "[9]", "value": "2 to 20", "unit": "nM"},
      {"measurement": "cytotoxicity", "setting": "[10]", "value": "poor cytotoxicity"}
    ]}
  ]
}
